According to ChEMBL document CHEMBL4376886, “Design, Synthesis, and Evaluation of Novel Enterovirus 71 Inhibitors as Therapeutic Drug Leads for the Treatment of Human Hand, Foot, and Mouth Disease” (J Med Chem, 2020):

Columns and labels:
[1] = Inhibition of capsid protein VP1 in Enterovirus 71 (FY)-Luc infected in human RD cells assessed as reduction in virus-induced cell death preincubated for 24 hrs followed by […] substrate addition and measured after 5 mins by chemiluminescence analysis; assay type: cell-based, Enterovirus A71; conditions: Enterovirus A
[2] = Subacute toxicity in PND4 Sprague-Dawley rat assessed as animal survival at 30 to 50 mg/kg/day, po administered via gavage for 14 days and measured for 28 days; assay type: organism-based; conditions: in vivo
[3] = Apparent half-life of the terminal disposition phase in Sprague-Dawley rat at 1 mg/kg, iv administered as single dose measured upto 24 hrs by LC-MS/MS analysis; assay type: ADME, organism-based; conditions: in vivo, read-out: t1/2 lambda z (converted)
in vivo [4] = conditions: zebrafish
Description: Acute toxicity in juvenile zebrafish assessed as fatality rate at 150 uM after 48 hrs

Enterovirus A71 = assay: Antiviral activity against Enterovirus 71 genotype C4 infected in BALB/c mouse assessed as protection rate at 10 mg/kg/day, ip qd for 7 days administration starting from 48 hrs post-infection and measured for 14 days; assay type: functional
[5] = rat, in vivo, ip, 5 mg/kg, 24 h
Description: AUC (0 to t) in Sprague-Dawley rat at 5 mg/kg, ip administered as single dose measured upto 24 hrs by LC-MS/MS analysis

[6] = Apparent clearance during terminal phase in Sprague-Dawley rat at 1 mg/kg, iv administered as single dose measured upto 24 hrs by LC-MS/MS analysis; assay type: ADME, organism-based; conditions: in vivo
[7] = Subacute toxicity in PND14 Sprague-Dawley rat assessed as lens fiber loosening and vacuolar degeneration at 100 mg/kg/day, po administered via gavage for 14 days and measured at day 28 by hematoxylin and eosin staining based histopathological analysis; assay type: organism-based; conditions: in vivo, 336 h
[8] = Subacute toxicity in PND21 Sprague-Dawley rat assessed as quadriplegia at 100 mg/kg/day, po administered via gavage for 14 days and measured for 28 days; assay type: organism-based; conditions: in vivo, 672 h
[9] = Apparent clearance during terminal phase in Sprague-Dawley rat at 5 mg/kg, po administered as single dose measured upto 24 hrs by LC-MS/MS analysis; assay type: ADME, organism-based; conditions: in vivo, read-out: CLz/F (converted)
in vivo [10] = conditions: Sprague-Dawley, rat, ip, 5 mg/kg
Description: Tmax in Sprague-Dawley rat at 5 mg/kg, ip administered as single dose measured upto 24 hrs by LC-MS/MS analysis

[11] = Acute toxicity in juvenile zebrafish assessed as fatality rate at 50 uM after 24 hrs; conditions: in vivo
[12] = Subacute toxicity in PND14 Sprague-Dawley rat assessed as hair loss at 100 mg/kg/day, po administered via gavage for 14 days and measured for 28 days; assay type: organism-based; conditions: in vivo, 672 h
in vivo [13] = conditions: Sprague-Dawley, rat, ip, 5 mg/kg; remark: listed apart in the source
Description: Cmax in Sprague-Dawley rat at 5 mg/kg, ip administered as single dose measured upto 24 hrs by LC-MS/MS analysis

[14] = Cmax in Sprague-Dawley rat at 5 mg/kg, po administered as single dose measured upto 24 hrs by LC-MS/MS analysis; assay type: ADME, organism-based; parameters: dose 5 mg/kg, route oral; conditions: in vivo
[15] = Apparent half-life of the terminal disposition phase in Sprague-Dawley rat at 5 mg/kg, po administered as single dose measured upto 24 hrs by LC-MS/MS analysis; assay type: ADME, organism-based; conditions: in vivo, read-out: t1/2 lambda z (converted)
[16] = Bioavailability in Sprague-Dawley rat at 5 mg/kg, ip administered as single dose measured upto 24 hrs by LC-MS/MS analysis; conditions: in vivo
[17] = Subacute toxicity in PND14 Sprague-Dawley rat assessed as development of opaque lens at 100 mg/kg/day, po administered via gavage for 14 days and measured for 28 days; assay type: organism-based; conditions: in vivo, 672 h
in vivo [18] = conditions: Sprague-Dawley, rat, ip, 5 mg/kg; remark: listed apart in the source
Description: Apparent half-life of the terminal disposition phase in Sprague-Dawley rat at 5 mg/kg, ip administered as single dose measured upto 24 hrs by LC-MS/MS analysis

[19] = Acute toxicity in juvenile zebrafish assessed as fatality rate at 20 uM after 24 hrs; conditions: in vivo
[20] = Metabolic stability in Sprague-Dawley rat liver microsomes assessed as intrinsic clearance measured upto 300 mins in presence of NADP+ by HPLC analysis
in vivo [21] = conditions: zebrafish; remark: listed apart in the source
Description: Acute toxicity in juvenile zebrafish assessed as fatality rate at 150 uM after 24 hrs

[22] = Oral bioavailability in Sprague-Dawley rat at 5 mg/kg administered as single dose measured upto 24 hrs by LC-MS/MS analysis; assay type: ADME, organism-based; conditions: in vivo
[23] = Acute toxicity in juvenile zebrafish assessed as fatality rate at 100 uM after 48 hrs; conditions: in vivo
[24] = Subacute toxicity in PND7 Sprague-Dawley rat assessed as irreversible opaqueness of lens at 30 to 50 mg/kg/day, po administered via gavage for 14 days and measured for 28 days; assay type: organism-based; conditions: in vivo, 672 h
[25] = Subacute toxicity in PND14 Sprague-Dawley rat assessed as quadriplegia at 100 mg/kg/day, po administered via gavage for 14 days and measured for 28 days; assay type: organism-based; conditions: in vivo, 672 h
[26] = Cmax in Sprague-Dawley rat at 1 mg/kg, iv administered as single dose measured upto 24 hrs by LC-MS/MS analysis; assay type: ADME, organism-based; parameters: dose 1 mg/kg, route intravenous; conditions: in vivo
[27] = Acute toxicity in juvenile zebrafish assessed as fatality rate at 200 uM after 48 hrs; conditions: in vivo
[28] = Subacute toxicity in PND21 Sprague-Dawley rat assessed as development of opaque lens at 100 mg/kg/day, po administered via gavage for 14 days and measured for 28 days; assay type: organism-based; conditions: in vivo, 672 h
[29] = Cytotoxicity against human RD cells assessed as reduction in cell viability incubated for 24 hrs by MTT assay; conditions: rd
[30] = AUC (0 to t) in Sprague-Dawley rat at 5 mg/kg, po administered as single dose measured upto 24 hrs by LC-MS/MS analysis; assay type: ADME, organism-based; conditions: in vivo
[31] = Tmax in Sprague-Dawley rat at 5 mg/kg, po administered as single dose measured upto 24 hrs by LC-MS/MS analysis; assay type: ADME, organism-based; conditions: in vivo
[32] = Subacute toxicity in PND7 Sprague-Dawley rat assessed as animal survival at 30 to 50 mg/kg/day, po administered via gavage for 14 days and measured for 28 days; assay type: organism-based; conditions: in vivo
in vivo [33] = conditions: Sprague-Dawley, rat, ip, 5 mg/kg; remark: listed apart in the source
Description: Apparent clearance during terminal phase in Sprague-Dawley rat at 5 mg/kg, ip administered as single dose measured upto 24 hrs by LC-MS/MS analysis

[34] = Subacute toxicity in PND21 Sprague-Dawley rat assessed as hair loss at 100 mg/kg/day, po administered via gavage for 14 days and measured for 28 days; assay type: organism-based; conditions: in vivo, 672 h
[35] = Subacute toxicity in PND4 Sprague-Dawley rat assessed as irreversible opaqueness of lens at 30 to 50 mg/kg/day, po administered via gavage for 14 days and measured for 28 days; assay type: organism-based; conditions: in vivo, 672 h
[36] = Acute toxicity in juvenile zebrafish assessed as fatality rate at 50 uM after 48 hrs; conditions: in vivo
[37] = Acute toxicity in juvenile zebrafish assessed as fatality rate at 200 uM after 24 hrs; conditions: in vivo
[38] = Acute toxicity in juvenile zebrafish assessed as fatality rate at 100 uM after 24 hrs; conditions: in vivo
[39] = AUC (0 to t) in Sprague-Dawley rat at 1 mg/kg, iv administered as single dose measured upto 24 hrs by LC-MS/MS analysis; assay type: ADME, organism-based; conditions: in vivo
[40] = Acute toxicity in juvenile zebrafish assessed as fatality rate at 20 uM after 48 hrs; conditions: in vivo

CCO/N=C/c1ccc(OCCC(C)CCN2CCN(c3ccnc(N)c3)C2=O)cc1 (stereo unspecified)
EC50 [1]: 0.025 nM | survival at 672 h [2]: 100% | half-life [3]: 0.5 h | mortality at 48 h, 150 µM (in vivo [4]): 100% | Activity (Enterovirus A71): 100% | AUCt [5]: 258 ng·h/mL | CLz/F [6]: 13.2 mL/min/kg | Activity [7]: Toxic | Activity [8]: Toxic | CL/F [9]: 1600 mL/min/kg | Tmax at 24 h (in vivo [10]): 0.5 h | mortality at 24 h, 50 µM [11]: 100% | Activity [12]: Toxic | Cmax at 24 h (in vivo [13]): 149 ng/mL | Cmax [14]: 81.8 ng/mL | half-life [15]: 2.99 h | bioavailability at 24 h [16]: 85% | Activity [17]: Toxic | half-life at 24 h (in vivo [18]): 2.64 h | mortality at 24 h, 20 µM [19]: 100% | microsomal CLint at 5 h [20]: 38.9 µL/min/mg | mortality at 24 h, 150 µM (in vivo [21]): 100% | bioavailability [22]: 73.3% | mortality at 48 h, 100 µM [23]: 100% | Activity [24]: Toxic | Activity [25]: Toxic | Cmax [26]: 23.3 ng/mL | mortality at 48 h, 200 µM [27]: 100% | Activity [28]: Toxic | CC50 at 24 h [29]: 29.4 µM | AUCt [30]: 222 ng·h/mL | Tmax [31]: 1 h | survival at 672 h [32]: 100% | CL/F at 24 h (in vivo [33]): 381 mL/min/kg | Activity [34]: Toxic | Activity [35]: Toxic | mortality at 48 h, 50 µM [36]: 100% | mortality at 24 h, 200 µM [37]: 100% | mortality at 24 h, 100 µM [38]: 100% | AUCt [39]: 60.8 ng·h/mL | mortality at 48 h, 20 µM [40]: 100%
